According to the CheMixHub viscosity set:

Experiment: xn = mol fraction of the nth substance listed

COC(C)=O + CO
298.15 K, 101.33 kPa
Conditions	viscosity [mPa·s]
x1 = 0.0996	0.498
x1 = 0.2029	0.462
x1 = 0.3433	0.421
x1 = 0.4025	0.41
x1 = 0.4912	0.397
x1 = 0.6272	0.386
x1 = 0.7892	0.38
x1 = 0.8704	0.381

COCCOC + CO
298.15 K, 101 kPa
Conditions	viscosity [mPa·s]
x1 = 0.03801	0.5333
x1 = 0.08163	0.5252
x1 = 0.1322	0.5142
x1 = 0.1916	0.4946
x1 = 0.2623	0.479
x1 = 0.3478	0.4627
x1 = 0.4534	0.4496
x1 = 0.5871	0.4355
x1 = 0.7619	0.4209

O=C(O)c1ccccc1 + CO
viscosity [mPa·s]
Conditions	298.15 K	303.15 K	308.15 K	313.15 K	318.15 K
101 kPa, x1 = 0.15	–	1.196	–	–	0.9466
101 kPa, x1 = 0.151	1.311	1.196	1.098	1.014	0.9466
101 kPa, x1 = 0.16	–	1.29	–	–	1.002
101 kPa, x1 = 0.179	–	1.36	1.25	1.147	1.053
101 kPa, x1 = 0.18	–	1.36	–	–	1.053
101 kPa, x1 = 0.2	–	–	–	–	1.133
101.33 kPa, x1 = 0.15	1.311	1.196	1.098	1.014	0.9466
101.33 kPa, x1 = 0.1514	–	1.196	–	–	0.9466
101.33 kPa, x1 = 0.1626	–	1.29	–	–	1.002
101.33 kPa, x1 = 0.1788	–	1.36	–	–	1.053
101.33 kPa, x1 = 0.18	–	1.36	1.25	1.147	1.053
101.33 kPa, x1 = 0.1961	–	–	–	–	1.133

COC(C)=O + COCCO
viscosity [mPa·s], 101 kPa
Conditions	x2 = 0.0993	x2 = 0.2004	x2 = 0.2993	x2 = 0.4009	x2 = 0.4996	x2 = 0.6014	x2 = 0.7013	x2 = 0.8006	x2 = 0.9001
298.15 K	0.429	0.484	0.549	0.636	0.729	0.862	1.012	1.218	1.453
303.15 K	0.407	0.457	0.517	0.596	0.679	0.797	0.929	1.112	1.317
308.15 K	0.387	0.432	0.486	0.556	0.632	0.738	0.858	1.025	1.2

COc1ccccc1N + COCCO
303.15 K, 101 kPa
Conditions	viscosity [mPa·s]
x1 = 0.0724	2.225
x1 = 0.1494	2.507
x1 = 0.2314	2.808
x1 = 0.319	3.132
x1 = 0.4127	3.478
x1 = 0.5131	3.794
x1 = 0.6211	4.083
x1 = 0.7376	4.343
x1 = 0.8635	4.614

c1ccc2ncccc2c1 + COc1ccccc1O
303.15 K, 101 kPa
Conditions	viscosity [mPa·s]
x1 = 0.1	5.95
x1 = 0.2	8.05
x1 = 0.3	10.04
x1 = 0.333	10.54
x1 = 0.36	10.97
x1 = 0.38	11.45
x1 = 0.4	11.65
x1 = 0.44	11.66
x1 = 0.46	11.57
x1 = 0.5	10.95
x1 = 0.6	8.98
x1 = 0.7	6.77
x1 = 0.8	4.87
x1 = 0.9	3.88
